From ChEMBL document CHEMBL1132796, “Multistep solution-phase parallel synthesis of spiperone analogues” (Bioorg Med Chem Lett, 2000) come the findings set out here.

In assay [1] the target is T1, 5-hydroxytryptamine receptor 2A (Homo sapiens, UniProt P28223). Put plainly: Compound was evaluated for its inverse agonist activity against 5-hydroxytryptamine 2A receptor. Type of assay: functional.
For assay [2], the target named is T1, 5-hydroxytryptamine receptor 2A. In words: Compound was evaluated for its binding against 5-hydroxytryptamine 2A receptor.

T1 sequence (P28223 whole entry): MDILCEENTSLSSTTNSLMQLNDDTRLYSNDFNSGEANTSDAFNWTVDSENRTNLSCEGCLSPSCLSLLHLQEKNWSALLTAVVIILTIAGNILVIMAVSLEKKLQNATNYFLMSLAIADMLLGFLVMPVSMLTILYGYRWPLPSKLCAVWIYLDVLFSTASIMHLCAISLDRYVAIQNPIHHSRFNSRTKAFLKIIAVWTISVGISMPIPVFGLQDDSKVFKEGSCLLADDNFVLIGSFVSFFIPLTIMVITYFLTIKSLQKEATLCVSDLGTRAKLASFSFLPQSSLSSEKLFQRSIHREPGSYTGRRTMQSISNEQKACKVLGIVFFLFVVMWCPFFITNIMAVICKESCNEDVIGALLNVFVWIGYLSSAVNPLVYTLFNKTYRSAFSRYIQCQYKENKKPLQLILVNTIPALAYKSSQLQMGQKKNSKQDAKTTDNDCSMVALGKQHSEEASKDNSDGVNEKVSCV

`CC(C)NC(=O)N(C1CCCCCCC1)C1CCN(CCCOc2ccc(F)cc2)CC1` gave an IC50 in assay [1] of 79.4 nM. That is a double-digit nanomolar value.

For the compound `CCC(=O)N(C1CCCCCCC1)C1CCN(CCCOc2ccc(F)cc2)CC1`, the IC50 in assay [1] is 12.6 nM. For the same compound, the Ki in assay [2] was found to be 20 nM.
